Patent US20110028566A1, “COMPOSITIONS AND PRODUCTS CONTAINING CYCLOALIPHATIC DIOL ANTIMICROBIAL AGENTS AND METHODS OF USING THE COMPOSITIONS AND PRODUCTS” (EASTMAN CHEMICAL COMPANY, priority 2009, published 2011)
Where “and” joins values, the source holds several entries; their conditions need not be identical. Identical values can stand only once.

Key:
[1] = system: Pseudomonas aeruginosa ATCC 27853; assay: MIC determination and synergy testing (Kull synergy index), microplate; assay type: cell-based; conditions: for QA, MIC of CHDM alone: plate 169E (CG series)
Summary of the method: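 Broth microdilution in TSB (pH 7.3) for bacteria or SDB (pH 5.6) for C. albicans, 1:1.3333 serial dilutions covering one log in nine steps, agents alone or blended for synergy; triplicate wells inoculated to ~10^6 CFU/mL bacteria or ~10^5 CFU/mL yeast; uninoculated wells correct compound turbidity.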

Pseudomonas aeruginosa = assay: Test for adequate preservation in skin cream formulation (microorganism counts); assay type: cell-based; conditions: skin cream emulsion pH 6.75; concentration in label
Experimental: A test for adequate preservation was carried out in accordance with the European Pharmacopea (6.0) and United States Pharmacopea (5.1). The testing consisted of the inoculation of a skin cream formulation serving as an emulsion substrate. The skin cream formulation having a pH of 6.75 was as follows: […]
This skin cream was the emulsion substrate, which formed the base for all further experimentation.
For Examples 3.1 through 3.10, 390.0 g cream were weighed into a 600-ml beaker. The cream was stirred at room temperature while adding the ingredients specified in Table 51. Each sample was stirred for 2 hours, then placed in the refrigerator until inoculated.
For Examples 3.11 and 3.12, 179.4 g cream were weighed into a 400-ml beaker. The cream was stirred at room temperature while adding the specified ingredients.
The samples of Examples 3.1 through 3.10 were challenged with specific organisms (see Table 51) to produce a contamination of between 1.0×10^5 cfu/g and 1.0×10^6 cfu/g. The actual inoculation counts resulting from these challenges were immediately determined by diluting in sterile buffered water and (spread plate method) plating for enumeration.
Challenge organisms were prepared in Mueller-Hinton broth, allowed to grow for 72 hours at 35° C.+/−2° C., centrifuged at 2500 rpm for 5 minutes, and the supernatant broth was removed. The microbial pellet was then re-diluted with sterile buffered water to a turbidity that matched previous 1.0×10^8 cfu/g concentrations of that organism's specific growth curve.
The test emulsions were maintained within a specific temperature range optimal for the organisms; 35° C.+/2° C. for the bacteria and 22° C.+/−2° C. for the fungi, for the first three days. They were kept at ambient room temperature for the subsequent time periods.
Subculture samples of approximately 1 gram were taken for counts at 7, 14, and 30 days and incubated under optimal conditions and nutrition for no less than 5 days. Subcultures were diluted 1:2, 1:10, 1:100, . . . , 1:10,000 and plated using the spread plate method onto Plate Count Agar and onto SAB Dextrose Agar for the Candida and Aspergillus species; and incubated as follows: 35° C.+/−2° C. for the Plate Count Agar and 22° C.+/−2° C. for the SAB Dextrose plates of Candida albicans and Aspergillus niger. Negative results were not reported before 7 days incubation, and counts were performed after no less than 5 days incubation. Because of the high viscosity of the test emulsion, at least a 1:2 dilution was required to perform the spread plate subcultures. 0-30 counts represent a 1 to 2 dilution, numbers […] a 1:10 dilution; and the rest represent dilutions of 1:100, 1:1000, or 1:10,000. […]

[2] = P. aeruginosa, plate 126E, day 2, PE and CHDM

**Q.** Which results are given for `OCC1CCC(CO)CC1` (centres unmarked) [1,4-CHDM, 1,4-cyclohexanedimethanol]?
**A.** QA/a ([1]; CHDM alone (QA) or in combination with BA:DHA (a), plate 149E, day 1): 1.31; QA/a ([1]; CHDM alone (QA) or in combination with BA:DHA (a), plate 149E, day 2): 1.75; QA/a ([1]; CHDM alone (QA) or in combination with DMDM hydantoin (a), plate 150E, day 1): 1.31; QA/a ([1]; CHDM: MIC alone (QA) or conc. in combination with CP (a), plate 148E, day 1): 1.31; QA/a ([1]; CHDM: MIC alone (QA) or conc. in combination with MIT (a), plate 147E, day 1): 1.31; QA/a ([1]; CHDM: MIC alone (QA) or conc. in combination with MIT (a), plate 147E, day 2): 2.33; QA/a ([1]; CHDM: MIC alone (QA) or conc. in combination with MIT (a), plate 210E, day 1): 1.75; QA/a ([1]; CHDM: MIC alone (QA) or conc. in combination with MIT (a), plate 210E, day 2): 1.75; QA/a ([1]; CHDM: MIC alone (QA) or conc. in combination with MIT (a), plate 249E, day 1): 1.80; QA/a ([1]; CHDM: MIC alone (QA) or conc. in combination with MIT (a), plate 249E, day 2): 1.80; QA/a ([1]; CHDM: MIC alone (QA) or conc. in combination with MP (a), plate 146E, day 1): 1.31; QA, MIC of CHDM alone ([1]; P. aeruginosa, day 1 of incubation): 1.31 weight percent; QA, MIC of CHDM alone ([1]; P. aeruginosa, day 2 of incubation): 1.75 weight percent; QA, MIC of CHDM alone ([1]; P. aeruginosa, day 3 of incubation): 1.75 weight percent; QA/a: concentration of CHDM (MIC alone, or in the combination at an inhibitory concentration) [1, 2]: 1.75 weight percent; SI (synergy index) [1, 2]: 1.00; QA/a: concentration of CHDM alone (QA, MIC) ([1]; Table 43, P. aeruginosa, Day 1): 1.31 weight percent and 1.35 weight percent; QA/a: concentration of CHDM alone (QA, MIC) ([1]; Table 43, P. aeruginosa, Day 2): 1.75 weight percent and 1.80 weight percent and 1.35 weight percent; QA/a: concentration of CHDM alone (QA, MIC) ([1]; Table 45, P. aeruginosa, Day 1): 1.31 weight percent and 1.35 weight percent and 1.80 weight percent; QA/a: concentration of CHDM alone (QA, MIC) ([1]; Table 45, P. aeruginosa, Day 2): 2.33 weight percent and 1.75 weight percent and 1.80 weight percent; QA/a: concentration of CHDM alone (QA, MIC) ([1]; Table 48, P. aeruginosa, Day 1): 1.75 weight percent and 1.31 weight percent; QA/a: concentration of CHDM alone (QA, MIC) ([1]; Table 48, P. aeruginosa, Day 2): 2.33 weight percent and 1.75 weight percent; Antimicrobial activity against Pseudomonas aeruginosa in skin cream (in words) (Pseudomonas aeruginosa): significant activity
